Columns and labels:
[1] = molecular target: T1, Integrin alpha-4/beta-1 (Homo sapiens, UniProt P05556+P13612); assay: Inhibition of Very late antigen 4/vascular cell adhesion molecule 1 interaction in ELISA; type: protein-complex assay
[2] = molecular target: T1, Integrin alpha-4/beta-1; assay: Inhibitory binding concentration determined against VCAM/VLA-4 in ELISA; type: protein-complex assay
[3] = molecular target: T1, Integrin alpha-4/beta-1; assay: Inhibitory binding concentration determined against VCAM/VLA-4 in Ramos; type: protein-complex assay
[4] = molecular target: T1, Integrin alpha-4/beta-1; assay: Inhibition of Very late antigen 4 (VLA-4) of Ramos cell adhesion to vascular cell adhesion molecule 1 (VCAM-1); type: cell-based

T1 sequence (P05556 whole entry): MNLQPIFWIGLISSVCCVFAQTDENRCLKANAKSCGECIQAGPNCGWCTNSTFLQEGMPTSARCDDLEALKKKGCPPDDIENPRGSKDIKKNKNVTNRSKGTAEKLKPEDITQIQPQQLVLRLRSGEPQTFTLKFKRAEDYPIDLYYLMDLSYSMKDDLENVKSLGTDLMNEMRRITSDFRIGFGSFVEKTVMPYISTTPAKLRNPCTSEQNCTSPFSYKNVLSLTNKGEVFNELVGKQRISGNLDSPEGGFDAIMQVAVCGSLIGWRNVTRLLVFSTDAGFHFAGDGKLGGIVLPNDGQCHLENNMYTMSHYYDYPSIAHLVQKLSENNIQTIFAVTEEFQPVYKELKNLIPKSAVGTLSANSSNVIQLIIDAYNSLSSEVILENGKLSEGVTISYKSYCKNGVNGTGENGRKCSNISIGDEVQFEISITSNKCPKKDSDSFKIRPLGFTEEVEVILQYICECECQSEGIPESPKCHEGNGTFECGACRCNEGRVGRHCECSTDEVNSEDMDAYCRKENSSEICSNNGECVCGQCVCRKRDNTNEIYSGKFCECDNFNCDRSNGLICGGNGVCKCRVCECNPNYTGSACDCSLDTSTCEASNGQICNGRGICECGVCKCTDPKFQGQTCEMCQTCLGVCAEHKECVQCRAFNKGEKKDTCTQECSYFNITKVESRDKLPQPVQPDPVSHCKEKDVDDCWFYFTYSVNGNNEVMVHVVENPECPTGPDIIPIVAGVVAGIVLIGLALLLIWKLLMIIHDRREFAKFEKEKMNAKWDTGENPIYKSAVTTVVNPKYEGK
T1 sequence (P13612 whole entry): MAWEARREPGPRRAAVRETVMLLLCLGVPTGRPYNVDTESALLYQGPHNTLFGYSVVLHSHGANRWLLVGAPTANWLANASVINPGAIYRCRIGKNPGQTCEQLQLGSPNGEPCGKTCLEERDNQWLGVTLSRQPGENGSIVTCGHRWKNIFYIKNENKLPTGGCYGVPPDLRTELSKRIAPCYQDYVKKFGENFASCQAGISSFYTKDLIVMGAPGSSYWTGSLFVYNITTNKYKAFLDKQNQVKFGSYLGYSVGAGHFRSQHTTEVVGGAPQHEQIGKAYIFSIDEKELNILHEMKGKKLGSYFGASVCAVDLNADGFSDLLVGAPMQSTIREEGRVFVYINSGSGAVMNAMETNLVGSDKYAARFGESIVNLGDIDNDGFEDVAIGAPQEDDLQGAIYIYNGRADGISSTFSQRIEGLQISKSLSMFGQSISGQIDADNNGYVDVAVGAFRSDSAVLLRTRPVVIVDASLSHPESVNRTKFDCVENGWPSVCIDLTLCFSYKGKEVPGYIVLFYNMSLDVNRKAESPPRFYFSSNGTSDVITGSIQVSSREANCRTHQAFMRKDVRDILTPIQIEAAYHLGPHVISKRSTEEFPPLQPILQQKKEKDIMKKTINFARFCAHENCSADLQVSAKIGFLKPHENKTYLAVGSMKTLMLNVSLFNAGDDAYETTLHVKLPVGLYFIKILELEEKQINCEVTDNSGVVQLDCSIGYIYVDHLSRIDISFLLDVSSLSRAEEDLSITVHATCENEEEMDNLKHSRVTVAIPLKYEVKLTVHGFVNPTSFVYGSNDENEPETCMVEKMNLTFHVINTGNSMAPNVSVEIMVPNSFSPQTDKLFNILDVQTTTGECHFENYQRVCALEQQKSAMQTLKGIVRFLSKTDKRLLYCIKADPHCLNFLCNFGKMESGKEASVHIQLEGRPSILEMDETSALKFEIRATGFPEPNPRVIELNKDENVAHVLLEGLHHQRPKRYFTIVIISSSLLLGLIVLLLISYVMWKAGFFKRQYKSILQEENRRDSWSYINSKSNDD

SMILES	IC50 [1]	IC50 [2]	IC50 [3]	IC50 [4]
C[S+]([O-])CCC1(C(=O)N[C@@H](Cc2ccc(NC(=O)c3c(Cl)cccc3Cl)cc2)C(=O)O)CCCC1 (some centres undefined)	0.21 nM	–	–	–
O=C(Nc1ccc(C[C@H](NC(=O)C2(c3ccccc3)CCCC2)C(=O)O)cc1)c1c(Cl)cccc1Cl	–	1.7 nM	–	–
N#CCCCCC1(C(=O)N[C@@H](Cc2ccc(NC(=O)c3c(Cl)cccc3Cl)cc2)C(=O)O)CCCC1	–	0.52 nM	–	–
Cn1nnnc1-c1ccc(CC2(C(=O)N[C@@H](Cc3ccc(NC(=O)c4c(Cl)cccc4Cl)cc3)C(=O)O)CCCC2)cc1	–	–	19 nM	–
CS(=O)(=O)CCC1(C(=O)N[C@@H](Cc2ccc(NC(=O)c3c(Cl)cccc3Cl)cc2)C(=O)O)CCCC1	0.8 nM	–	–	–
CNC(=O)NCCC1(C(=O)N[C@@H](Cc2ccc(NC(=O)c3c(Cl)cccc3Cl)cc2)C(=O)O)CCCC1	–	0.1 nM	11 nM	–
CS(=O)(=O)CCCCC1(C(=O)N[C@@H](Cc2ccc(NC(=O)c3c(Cl)cccc3Cl)cc2)C(=O)O)CCC1	0.1 nM	–	–	6 nM
CS(=O)(=O)CCCCC1(C(=O)N[C@@H](Cc2ccc(NC(=O)c3c(Cl)cccc3Cl)cc2)C(=O)O)CCCC1	0.15 nM	–	–	8 nM
COCC1(C(=O)N[C@@H](Cc2ccc(NC(=O)c3c(Cl)cccc3Cl)cc2)C(=O)O)CCCC1	–	1 nM	134 nM	–
COc1ccc(CC2(C(=O)N[C@@H](Cc3ccc(NC(=O)c4c(Cl)cccc4Cl)cc3)C(=O)O)CCCC2)cc1	–	0.6 nM	37 nM	–
Cn1nnnc1-c1ccc(CC2(C(=O)N[C@@H](Cc3ccc(NC(=O)c4c(Cl)cccc4Cl)cc3)C(=O)O)CCCCC2)cc1	–	1.3 nM	61 nM	–
NC(=O)NCCC1(C(=O)N[C@@H](Cc2ccc(NC(=O)c3c(Cl)cccc3Cl)cc2)C(=O)O)CCCC1	–	0.46 nM	–	–
N#CCC1(C(=O)N[C@@H](Cc2ccc(NC(=O)c3c(Cl)cccc3Cl)cc2)C(=O)O)CCCC1	–	1.1 nM	–	–
[N-]=[N+]=NCCC1(C(=O)N[C@@H](Cc2ccc(NC(=O)c3c(Cl)cccc3Cl)cc2)C(=O)O)CCCC1	–	0.53 nM	–	–
CS(=O)(=O)CCCC1(C(=O)N[C@@H](Cc2ccc(NC(=O)c3c(Cl)cccc3Cl)cc2)C(=O)O)CCCC1	1.8 nM	–	–	528 nM
COc1ccc(CC2(C(=O)N[C@@H](Cc3ccc(NC(=O)c4c(Cl)cccc4Cl)cc3)C(=O)O)CCCC2)cc1OC	–	0.8 nM	95 nM	–
O=C(NCCC1(C(=O)N[C@@H](Cc2ccc(NC(=O)c3c(Cl)cccc3Cl)cc2)C(=O)O)CCCC1)Nc1ccccc1	–	5.8 nM	914 nM	–
CC(=O)CCCC1(C(=O)N[C@@H](Cc2ccc(NC(=O)c3c(Cl)cccc3Cl)cc2)C(=O)O)CCCC1	–	7.8 nM	350 nM	–
O=C(Nc1ccc(C[C@H](NC(=O)C2(Cc3ccccc3Cl)CCCC2)C(=O)O)cc1)c1c(Cl)cccc1Cl	–	–	350 nM	–
Cn1nnnc1-c1cccc(CC2(C(=O)N[C@@H](Cc3ccc(NC(=O)c4c(Cl)cccc4Cl)cc3)C(=O)O)CCCC2)c1	–	0.4 nM	100 nM	–
COCCC1(C(=O)N[C@@H](Cc2ccc(NC(=O)c3c(Cl)cccc3Cl)cc2)C(=O)O)CCC1	–	0.61 nM	17 nM	–
C=CCCC1(C(=O)N[C@@H](Cc2ccc(NC(=O)c3c(Cl)cccc3Cl)cc2)C(=O)O)CCCC1	–	–	64 nM	–
O=C(Nc1ccc(C[C@H](NC(=O)C2(Cc3ccccc3)CCCC2)C(=O)O)cc1)c1c(Cl)cccc1Cl	–	6.6 nM	340 nM	–
COc1cccc(CC2(C(=O)N[C@@H](Cc3ccc(NC(=O)c4c(Cl)cccc4Cl)cc3)C(=O)O)CCCC2)c1	–	–	170 nM	–
CSCCCCC1(C(=O)N[C@@H](Cc2ccc(NC(=O)c3c(Cl)cccc3Cl)cc2)C(=O)O)CCCC1	1.1 nM	–	–	–
CN(C)CCC1(C(=O)N[C@@H](Cc2ccc(NC(=O)c3c(Cl)cccc3Cl)cc2)C(=O)O)CCCC1	–	3.4 nM	89 nM	–
COCCCCC1(C(=O)N[C@@H](Cc2ccc(NC(=O)c3c(Cl)cccc3Cl)cc2)C(=O)O)CCCC1	–	–	29 nM	–
COCCC1(C(=O)N[C@@H](Cc2ccc(NC(=O)c3c(Cl)cccc3Cl)cc2)C(=O)O)CCCC1	–	–	12 nM	–
[N-]=[N+]=NCCCCC1(C(=O)N[C@@H](Cc2ccc(NC(=O)c3c(Cl)cccc3Cl)cc2)C(=O)O)CCCC1	–	1.64 nM	142 nM	–

Source: ChEMBL document CHEMBL1135311, “N-Cycloalkanoyl-L-phenylalanine derivatives as VCAM/VLA-4 antagonists” (Bioorg Med Chem Lett, 2002)
